Test results: patent US10246420B2, “Pyrazole derivatives” (BAYER CROPSCIENCE AKTIENGESELLSCHAFT, priority 2014, dated 2019)
Like-named read-outs stand apart in the source and are kept apart here.

How the values were obtained:
[1] = Log P by HPLC on reversed phase columns (EEC directive 79/831 Annex V.A8); format: physicochemical; details: reversed phase HPLC columns, LC-UV, acidic range
Method: Measurement of Log P values was performed according to EEC directive 79/831 Annex V.A8 by HPLC (High Performance Liquid Chromatography) on reversed phase columns with the following methods:
[^a] Log P value is determined by measurement of LC-UV, in an acidic range, with 0.1% formic acid in water and acetonitrile as eluent (linear gradient from 10% acetonitrile to 95% acetonitrile).
[^b] Log P value is determined by measurement of LC-UV, in a neutral range, with 0.001 molar ammonium acetate solution in water and acetonitrile as eluent (linear gradient from 10% acetonitrile to 95% acetonitrile).
[^c] Log P value is determined by measurement of LC-UV, in an acidic range, with 0.1% phosphoric acid and acetonitrile as eluent (linear gradient from 10% acetonitrile to 95% acetonitrile).
Calibration was done with straight-chain alkan-2-ones (with 3 to 16 carbon atoms) with known Log P values (measurement of Log P values using retention times with linear interpolation between successive alkanones). Lambda-max-values were determined using UV-spectra from 200 nm to 400 nm and the peak values of the chromatographic signals.

Alternaria solani = experiment: Biological Example C1 (comparative): in vivo preventive test on Alternaria solani (tomatoes); details: rate of application 50 ppm, evaluated 3 days after inoculation
Method: (§1) To produce a suitable preparation of active compound, 1 part by weight of active compound is mixed with the stated amounts of solvent and emulsifier, and the concentrate is diluted with water to the desired concentration.
(§2) To test for preventive activity, young plants are sprayed with the preparation of active compound at the stated rate of application. After the spray coating has dried on, the plants are inoculated with an aqueous spore suspension of Alternaria solani. The plants are then placed in an incubation cabinet at approximately 20° C. and a relative atmospheric humidity of 100%.
The test is evaluated 3 days after the inoculation. 0% means an efficacy which corresponds to that of the untreated control while an efficacy of 100% means that no disease is observed.

Sphaerotheca fuliginea = experiment: Biological Example C3 (comparative): in vivo preventive test on Sphaerotheca fuliginea (cucumbers); details: rate of application 50 ppm, evaluated 7 days after inoculation
Method: as §1
as §2, with “Sphaerotheca fuliginea.” for “Alternaria solani.”, “a greenhouse” for “an incubation cabinet”, “23°” for “20°”, “approximately 70%.” for “100%.”
(§3) The test is evaluated 7 days after the inoculation. 0% means an efficacy which corresponds to that of the untreated control, while an efficacy of 100% means that no disease is observed.

Phakopsora pachyrhizi = experiment: Biological Example C2 (comparative): in vivo preventive test on Phakopsora pachyrhizi (soybeans); details: rate of application 250 ppm, evaluated 7 days after inoculation
Method: as §1
To test for preventive activity, young plants are sprayed with the preparation of active compound at the stated rate of application. After the spray coating has dried on, the plants are inoculated with an aqueous spore suspension of the causal agent of soybean rust (Phakopsora pachyrhizi) and stay for 24 h without light in an incubation cabinet at approximately 24° C. and a relative atmospheric humidity of 95%. The plants remain in the incubation cabinet at approximately 24° C. and a relative atmospheric humidity of approximately 80% and a day/night interval of 12 h.
as §3

chromatographic logP ([1]; 0.1% formic acid in water and acetonitrile as eluent, read-out: LogP [a]): 3.26
chromatographic logP ([1]; 0.1% phosphoric acid and acetonitrile as eluent, read-out: LogP [c]): 3.1
Structure (SMILES): C#CCOc1cc(F)cc(F)c1Nc1c(-c2ccc(F)cc2Cl)c(C)nn1C [Example I-01]
Efficacy in % (Alternaria solani): 96%
Efficacy in % (Sphaerotheca fuliginea): 98%
Efficacy in % (Phakopsora pachyrhizi): 94%
